Entries after “also recorded” stand apart in the source; their conditions may differ.
Columns and labels:
[1] = ABTS•+ scavenging capacity; type: biochemical; conditions: mean ± SD, n = 3
Protocol: The ABTS^•+ radical scavenging assay was employed to determine the antioxidant activity of G. pinifolium conventional extracts; the radical solution was prepared 16 h before the measurements mixing 7 mM ABTS and 2.45 mM K2S2O8, and the solution was stored protected from the light at room temperature until the ABTS radical formation. For the assay, were mixed 250 µL of ABTS radical with an increasing concentration of sample or positive control (Trolox), and after half an hour, the absorbance was measured at 734 nm with a Synergy HTX microplate reader. The results are expressed as IC50 in µg of extract or Trolox per mL. The percentage of radical inhibition formula was employed for the ABTS inhibition calculation, then the IC50 was calculated through linear regression (concentration vs. inhibition percentage), and the data is reported as the mean ± SD.

Radical DPPH inhibition = type: biochemical; conditions: mean ± SD, n = 3
Protocol: The radical DPPH inhibition was performed by mixing thoroughly 150 µL of DPPH 400 μM with 50 µL of the sample or positive control, the 96-well microplate was kept protected from the light, and after half hour of reaction, the absorbance was recorded at 515 nm in a Synergy HTX microplate reader [13, 16]. All the measurements were performed in triplicate. The data are expressed as IC50 in µg of extract or standard per mL and reported as the mean ± SD. The determination of the IC50 was performed using linear regression. Methanol was employed as a negative control and BHT as a positive control. The percentage of DPPH radical inhibition was calculated according to the following equation: Percentage of radical inhibition (%)=(1−A−As/ADPPH)×100
A: is the absorbance of the mixture of extract and radical, As: is the absorbance of the methanol and extract, and ADDPH: is the absorbance of the radical work solution.

T-47D cells (breast) = test: Antiproliferative activity (SRB), T-47D; type: cell-based, human; conditions: 48 h, means ± SEM, n = 3
Protocol: (§1) Stock solutions in DMSO of the samples were prepared to dissolve the plant extract at a concentration of 100 mg/mL and the pure compounds 1–2 at 40 mM. For the antiproliferative activity tests, human solid tumor cells (100 µL) were seeded onto 96-well plates at a density of 2500 (A549, HBL-100, HeLa, and SW1573) or 5000 (T-47D, and WiDr) cells/well.
(§2) On the next day, the samples were added to the cell cultures in triplicate at decimal dilutions in the range 250 to 2.5 µg/mL for the extracts and 100 to 0.001 µM for compounds 1–2. Control cells were exposed to an equivalent amount of DMSO (0.25% v/v, negative control). Cells were incubated for an additional 48 h, after which time they were precipitated with 25 μL of ice-cold TCA (50% w/v) and fixed for 60 min at 4 °C [20]. Following sulforhodamine B staining, the optical density (OD) of each well was measured at 530 nm using a BioTek Power Wave XS absorbance microplate reader. Values were corrected with the background OD of the wells containing the control. […] The cell lines used in this study were kindly provided by Prof. Godefridus J. Peters (VUmc, Amsterdam, The Netherlands).

A549 cells (lung) = test: Antiproliferative activity (SRB), A549; type: cell-based, human; conditions: means ± SEM, n = 3
Protocol: as §1, §2

HeLa cells (cervix) = test: Antiproliferative activity (SRB), HeLa; type: cell-based; conditions: 48 h; for GI50 / TGI (total growth inhibition) against HeLa cells: SRB; for GI50: means ± SEM, n = 3; for LC50 (50% lethal concentration): read-out: LC50 against HeLa cells
Protocol: as §1, §2

HBL-100 cells (breast) = test: Antiproliferative activity (SRB), HBL-100; type: cell-based, human; conditions: means ± SEM, n = 3
Protocol: as §1, §2

SW1573 cells (lung) = test: Antiproliferative activity (SRB), SW1573; type: cell-based, human; conditions: means ± SEM, n = 3
Protocol: as §1, §2

WiDr cells (colon) = test: Antiproliferative activity (SRB), WiDr; type: cell-based, human; conditions: 48 h, means ± SEM, n = 3
Protocol: as §1, §2

[2] = target: T1, butyrylcholinesterase (BChE) (Equus caballus, UniProt P81908); test: biochemical; conditions: means ± SD, n = 3; read-out: BChE Inhibition IC50 (converted)
T1 construct: purchased Sigma-Aldrich Chem. Co. (St. Louis, MO, USA); host or cells: equine serum
Protocol: (§3) The systems Arium 126 61316-RO and Arium 611 UV unit (Sartorius, Goettingen, Germany) were employed to get the ultra-pure water. […] Formic acid, methanol, ethyl acetate, and n-hexane of HPLC grade were obtained from Merk® (Santiago, Chile).
(§4) The Ellman method was used for the determination of the inhibitory potential against AChE and BChE. The enzymes were dissolved in Tris-HCl buffer 50 mM at pH 8.0 at the final concentration of 0.26 U/mL, and samples were prepared at 2 mg/mL and dissolved in buffer. […] Finally, to start the reaction, we added 20 µL of the substrate (acetyl-thiocholine iodide for AChE inhibition or butyryl-thiocholine chloride for BChE inhibition assays), and the absorbance was recorded at 405 nm for half an hour at 37 °C. The analysis was performed in triplicate, and the results are expressed as IC50.

[3] = target: T2, acetylcholinesterase (AChE) (Electrophorus electricus, UniProt O42275); test: biochemical; conditions: means ± SD, n = 3; read-out: AChE Inhibition IC50 (converted)
T2 construct: purchased Sigma-Aldrich Chem. Co. (St. Louis, MO, USA)
Protocol: as §3, §4

intact rat aorta = test: Vascular reactivity, relaxation of PE pre-contracted aortic rings; parameters: species or system Sprague Dawley rats; conditions: 10^−9–10^−4 M, pre-contracted with 10^−6 M PE, three experiments
Protocol: The investigation was conducted according to the local ethics research committee of Universidad de Antofagasta, which ratified the experimental procedures (CEIC #275/2020 and CEIC #366/2022) for the use of a normotensive animal model (n = 3–6). The characteristics of the animals were as follows: male Sprague Dawley rats, six to eight weeks old, weighing between 170 and 200 g. The animals were kept at room temperature (22–25 °C) with 45–51% of humidity with ad libitum free-choice access to tap water and food and were randomized.
All the animals were euthanized by cervical dislocation and immediately proceeded to dissection of the aorta. Then the vascular tissue was arranged in organ baths that were filled with Krebs-Ringer bicarbonate solution pH 7.4 and remained at 37 °C with a constant flux of gas (95% O2 and 5% CO2). Once the tissue was stabilized and the integrity of the vascular endothelium was evaluated, the aortic rings were pre-contracted with 10^−6 M phenylephrine (PE), and after ten minutes, increasing concentrations of G. pinifolium extract, 2-nor-1,2-secolycoserone or ent-labda-8,13-E-diene-15-ol were added in the organ bath.
The data acquired from vascular reactivity assays were expressed as average ± standard error of the mean (SEM). One-way analysis of variance (ANOVA) followed by the Dunnett test was employed for statistical data analysis. […]

MCF-7 = system: MCF-7; parameters: method as in doi:10.1016/j.indcrop.2015.06.033; conditions: 24 h of drug exposure; read-out: IC50 cell growth inhibition MCF-7; cited from earlier work
HeLa cells = test: Label-free continuous live-cell imaging, apoptosis kinetics (LCDA); type: cell-based, human; conditions: 20 h exposure, 1 at 80 µM, 2 at 50 µM
Protocol: The imaging platform microscope CX-A (Nanolive SA, Lausanne, Switzerland) was used to get refractive indexes (RIs), creating a holotomographic 3D image of the cells. HeLa cells were employed at a density of 50,000 cells/well onto an IBIDI μ-Dish, 35 mm high (IBIDI, Gräfelfing, Munich, Germany) and treated with compounds 1 and 2 right before the acquisition of the images at a dose of 80 µM and 50 µM, respectively. Data obtained were transferred to FIJI (NIH, Bethesda, MD, USA) for image analysis. The LIVE Cell Death Assay (LCDA) software (Nanolive SA) was used for the analysis of the RIs and for obtaining apoptosis kinetics.

[4] = system: A549, SW1573, HBL-100, T-47D, HeLa, WiDr; test: Antiproliferative activity (SRB), panel of six human solid tumor cell lines; type: cell-based; conditions: 48 h, read-out: GI50 range over all cell lines
Protocol: as §1, §2

T1 sequence (P81908 whole entry): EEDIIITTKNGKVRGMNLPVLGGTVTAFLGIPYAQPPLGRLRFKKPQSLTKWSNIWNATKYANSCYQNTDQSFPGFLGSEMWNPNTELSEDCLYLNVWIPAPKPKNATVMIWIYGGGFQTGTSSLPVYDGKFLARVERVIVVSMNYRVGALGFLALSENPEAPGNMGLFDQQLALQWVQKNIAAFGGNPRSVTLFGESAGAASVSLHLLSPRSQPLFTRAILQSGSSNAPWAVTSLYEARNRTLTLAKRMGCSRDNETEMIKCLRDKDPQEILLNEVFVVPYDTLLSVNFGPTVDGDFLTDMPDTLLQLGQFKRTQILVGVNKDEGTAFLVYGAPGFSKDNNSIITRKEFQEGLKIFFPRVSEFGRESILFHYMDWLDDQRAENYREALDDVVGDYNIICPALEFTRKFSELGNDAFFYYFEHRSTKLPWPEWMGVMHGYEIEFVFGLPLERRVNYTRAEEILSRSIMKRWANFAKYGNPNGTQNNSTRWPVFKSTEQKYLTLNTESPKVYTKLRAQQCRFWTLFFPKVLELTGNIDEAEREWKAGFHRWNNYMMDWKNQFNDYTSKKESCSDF
T2 sequence (O42275 24-633): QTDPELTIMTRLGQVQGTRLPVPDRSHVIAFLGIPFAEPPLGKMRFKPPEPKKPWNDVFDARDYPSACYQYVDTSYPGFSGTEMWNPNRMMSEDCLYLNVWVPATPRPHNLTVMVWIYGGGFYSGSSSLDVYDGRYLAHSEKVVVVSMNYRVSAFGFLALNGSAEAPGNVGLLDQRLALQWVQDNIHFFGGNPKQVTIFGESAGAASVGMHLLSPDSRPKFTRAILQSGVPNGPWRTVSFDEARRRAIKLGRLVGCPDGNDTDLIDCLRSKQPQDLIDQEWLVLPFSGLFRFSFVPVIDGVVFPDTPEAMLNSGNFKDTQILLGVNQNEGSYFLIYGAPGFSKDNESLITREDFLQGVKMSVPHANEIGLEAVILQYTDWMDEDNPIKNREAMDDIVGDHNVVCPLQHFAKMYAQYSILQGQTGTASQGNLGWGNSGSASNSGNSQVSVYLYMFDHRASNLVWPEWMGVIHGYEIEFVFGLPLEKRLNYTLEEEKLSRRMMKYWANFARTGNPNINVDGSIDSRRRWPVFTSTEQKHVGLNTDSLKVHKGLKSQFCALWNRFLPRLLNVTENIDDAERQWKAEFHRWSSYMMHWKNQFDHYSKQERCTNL

Row | SMILES | GI50 (T-47D cells (breast); Homo sapiens, T47D) [µM] | IC50 [2] [µM] | IC50 [3] [µM] | GI50 (A549 cells (lung); Homo sapiens, A549, 48 h) [µM] | relaxation effect in aortic rings (intact rat aorta) | TGI (total growth inhibition) against HeLa cells (HeLa cells (cervix)) [µM] | LC50 (50% lethal concentration) (HeLa cells (cervix); Homo sapiens, HeLa) [µM] | GI50 (HeLa cells (cervix); Homo sapiens, HeLa) [µM] | GI50 (HBL-100 cells (breast); Homo sapiens, HBL-100, 48 h) [µM] | GI50 (SW1573 cells (lung); Homo sapiens, SW1573, 48 h) [µM] | GI50 (WiDr cells (colon); Homo sapiens, WiDr) [µM] | further results
1 | Cc1c(C)c2c(c(C)c1O)CCC(C)(C(=O)O)O2 (racemic) [Trolox, (±)-6-Hydroxy-2,5,7,8-tetramethylchromane-2-carboxylic acid] |  |  |  |  |  |  |  |  |  |  |  | ABTS IC50 [1]: 2.33 ± 0.11 μg per mL
2 | Cc1cc(C(C)(C)C)c(O)c(C(C)(C)C)c1 [BHT] |  |  |  |  |  |  |  |  |  |  |  | DPPH IC50 (Radical DPPH inhibition): 25.09 ± 0.55 μg per mL
3 | N.N.[Cl][Pt][Cl] [Cisplatin, reference compound] |  |  |  |  |  |  |  |  |  |  |  | GI50 (T-47D cells (breast)): 17 ± 3.3 µM; GI50 (A549 cells (lung); 48 h): 4.9 ± 0.2 µM; GI50 (HeLa cells (cervix)): 1.8 ± 0.5 µM; GI50 (HBL-100 cells (breast); 48 h): 1.9 ± 0.2 µM; GI50 (SW1573 cells (lung); 48 h): 2.7 ± 0.4 µM; GI50 (WiDr cells (colon)): 23 ± 4.3 µM
4 | CC1=C(C(=O)CC(C)C)O[C@@H](CC(=O)c2c(C)cccc2O)[C@H]2[C@@H]1CC[C@@H]2C [Compound 1, 2-nor-1,2-secolycoserone] | 30 ± 0.1 | 29.2 | 3.15 | 23 ± 7.2 | slight relaxation effect; also recorded: do not cause vascular relaxation | 82 ± 4.5 | > 100 | 21 ± 4.5 | 31 ± 0.3 | 25 ± 5.6 | 36 ± 4.1 | IC50 (MCF-7): 15 µM
5 | CC1=C(CC/C(C)=C/CO)[C@]2(C)CCCC(C)(C)C2CC1 (stereo partly drawn) [Compound 2, ent-labda-8,13-E-diene-15-ol] | 5.1 ± 0.3 | 63.1 | 18.8 | 4.5 ± 0.1 | slight relaxation effect; also recorded: do not cause vascular relaxation; also recorded: no vascular relaxation | 46 ± 0.3 | 69 ± 27 | 4.8 ± 0.3 | 10 ± 1.3 | 5.4 ± 0.6 | 9 ± 3.4 | apoptosis kinetics (onset of cell death) (HeLa cells): induce death in HeLa cells earlier than coumarin 1; GI50 [4]: 4.5 to 10 µM

From article PMC9774750, “Phenolic Fingerprinting and Bioactivity Profiling of Extracts and Isolated Compounds from Gypothamnium pinifolium Phil” (Antioxidants, 2022)
